From US11530206B2, “Phenylaminopyrimidine amide autophagy inhibitors and methods of use thereof” (Deciphera Pharmaceuticals, LLC, priority 2019, dated 2022) come the findings set out here.

Molecules are shown by their SMILES. Bounds are passed on as bounds.

In one assay the target is T1, ULK1 kinase (Homo sapiens, UniProt O75385, E37A/K38A).
T1 construct: purchased Beryllium
T1 sequence (O75385 1-283 E37A/K38A): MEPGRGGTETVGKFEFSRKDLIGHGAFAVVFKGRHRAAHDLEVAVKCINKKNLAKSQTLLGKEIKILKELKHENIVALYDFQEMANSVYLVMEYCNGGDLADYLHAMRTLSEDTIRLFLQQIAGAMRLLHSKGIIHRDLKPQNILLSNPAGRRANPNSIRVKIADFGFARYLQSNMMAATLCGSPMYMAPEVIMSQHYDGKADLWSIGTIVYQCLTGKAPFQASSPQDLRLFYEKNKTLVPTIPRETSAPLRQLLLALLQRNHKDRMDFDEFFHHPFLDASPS
Description: Biochemical assay for ULK1.3 (coupled pyruvate kinase/lactate dehydrogenase assay, peptide substrate). Particulars: 0.1 nM ULK1 (residues 1-283), 1 mM ATP. As to the method:
Biochemical Assay for ULK1.3 (SEQ. ID NO: 2)
Inhibition of ULK1 was measured by adding serial diluted test compound (final assay concentration of 1% DMSO). A decrease in absorption at 340 nm was monitored continuously for 6 hours at 30° C. on a multi-mode microplate reader (BioTek). The reaction rate was calculated using the 2-3 h time frame. The reaction rate at each concentration of compound was converted to percent inhibition using controls (i.e. reaction with no test compound and reaction with a known inhibitor) and IC50 values were calculated using software routines in Prism (GraphPad software).

In assay [1] the test system is ULK kinase. The experiment in a line: pATG13 levels of mutant KRas A549 cells after treatment with ULK inhibitors in combination with trametinib (ELISA). Particulars: A549 (KRAS mutant) lung cancer cells, 250 nM trametinib, overnight, pS318-ATG13. Format: cell-based, human. The protocol: Cellular Inhibition of ULK Kinase Substrate ATG13 Protein pATG13 Levels of Mutant KRas A549 Cells after Treatment with ULK Inhibitors in Combination with Trametinib
(§1) A549 (KRAS mutant) human lung cancer cells (6,000 cells/well) were added to a 384-well tissue-culture treated plate in 50 μL of pre-warmed DMEM medium supplemented with 10% characterized fetal bovine serum (Invitrogen, Carlsbad, Calif.), 100 units/mL penicillin G, and 100 μg/mL streptomycin and allowed to grow overnight at 37° C., 5% CO2, and 95% humidity. The following day, 10 μL of media containing trametinib or DMSO as a control was added to wells. […] A dose response of a test compound (0.6 μL per well) was added. DMSO (0.6 μL) was added to control wells. The plate was briefly shaken to mix wells and then incubated at 37° C. overnight. The next day, the media was aspirated and cells were washed with Dulbecco's Phosphate Buffered Saline (Gibco). Cells were lysed using MPER lysis buffer (Pierce, Rockford, Ill.) containing Halt Phosphatase and Protease Inhibitors (Pierce, Rockford, Ill.) and Phosphatase inhibitor cocktail 2 (Sigma, St. Louis, Mo.) at 4° C. for 10 minutes with shaking.
(§2) Plate wells were washed with ELISA wash buffer. Cell lysate was added to wells and incubated at room temperature for 2 hours. Plate wells were washed with ELISA wash buffer. […] Plate wells were washed with ELISA wash buffer. […] Plate wells were washed with ELISA wash buffer. […] The reaction was stopped with 2N Sulfuric Acid. The plate was analyzed at on a plate reader measuring absorbance at 450 nm and 540 nm (background). Signal was calculated by first subtracting the background absorbance at 540 nm from the absorbance at 450 nm for each well. Next, the background corrected absorbance at 450 nm from blank wells was subtracted from test wells. Data was compared to control wells to determine % ATG13 phosphorylation. GraphPad Prism was used to calculate IC50 values.
(In an ELISA, binding on a coated surface is turned into a signal by an enzyme label.)

The test system of assay [2] is ULK kinase. Description: pATG13 levels of mutant KRas MiaPaCa-2 cells after treatment with ULK inhibitors in combination with trametinib (ELISA). In kind it is cell-based, human. The conditions noted are these: MiaPaCa-2 pancreatic cancer cells, 250 nM trametinib, overnight, pS318-ATG13. As to the method:
as §1, with “MiaPaCa-2” for “A549 (KRAS mutant)”, “pancreatic” for “lung”, “(10000” for “(6,000”, “G, 100 µg/mL streptomycin,” for “G,”, “2.5% Horse Serum” for “100 μg/mL streptomycin”
as §2

Consider `CC(C)c1cc(N2CCN(C)CC2)ccc1Nc1ncc(Br)c(NCCCN2CCCCC2=O)n1` [Example 15], for which, at ULK1 kinase, the IC50 (commonly the concentration needed to halve the response being measured) fell in the range of 25 to 100 nM. Same read-out and setting: the figure for `CN1CCCN(c2ccc(Nc3ncc(C(F)(F)F)c(NCCCN4CCCCC4=O)n3)c(C3CC3)c2)CC1` [Example 24] is 1 to 25 nM. For the compound `CN1CCN(c2ccc(Nc3ncc(Br)c(NCCCN4CCCCC4=O)n3)c(C3CC3)c2)CC1` [Example 26], the 50% inhibitory concentration (IC50) with ULK kinase [1] was in the range of 100 to 300 nM; with ULK kinase [2] it was 10 to 100 nM; against ULK1 kinase it was 1 to 25 nM. As for `CN1CCN(c2ccc(Nc3ncc(Cl)c(NCCCN4CCCCC4=O)n3)c(C3CC3)c2)CC1` [Example 27], the 50% inhibitory concentration (IC50) with ULK kinase [1] fell in the range of 100 to 300 nM; in the assay with ULK kinase [2] it was 100 to 300 nM; against ULK1 kinase, 25 to 100 nM. With `CCN1CCN(c2ccc(Nc3ncc(C(F)(F)F)c(NCCCN4CCCCC4=O)n3)c(C(C)C)c2)CC1` [Example 28], the values for the half-maximal inhibitory concentration (IC50) in the assay on ULK kinase [1], with ULK kinase [2] and against ULK1 kinase were 100 to 300 nM, 100 to 300 nM and 1 to 25 nM, respectively.

Consider `CCN1CCN(c2ccc(Nc3ncc(Cl)c(NCCCN4CCCCC4=O)n3)c(C(C)C)c2)CC1` [Example 29], for which the concentration for half-maximal inhibition (IC50) at ULK1 kinase lay in the range of 100 to 500 nM. Take `CCN1CCN(c2ccc(Nc3ncc(Br)c(NCCCN4CCCCC4=O)n3)c(C(C)C)c2)CC1` [Example 30]: the IC50 in the assay with ULK kinase [1] fell in the range of 300 to 600 nM; in the assay on ULK kinase [2], 100 to 300 nM; against ULK1 kinase it was 25 to 100 nM. `CCc1cc(N2CCCN(C)CC2)ccc1Nc1ncc(C(F)(F)F)c(NCCCN2CCCCC2=O)n1` [Example 31]: the IC50 lay in the range of 300 to 600 nM in the assay with ULK kinase [1], 100 to 300 nM in the assay with ULK kinase [2] and 1 to 25 nM on ULK1 kinase. In the case of `CC(=O)N1CCN(c2ccc(Nc3ncc(C(F)(F)F)c(NCCCN4CCCCC4=O)n3)c(C3CC3)c2)CC1` [Example 36, 1-(3-((2-((4-(4-acetylpiperazin-1-yl)-2-cyclopropylphenyl)amino)-5-(trifluoromethyl)pyrimidin-4-yl)amino)propyl)piperidin-2-one], the values for the 50% inhibitory concentration (IC50) in the assay with ULK kinase [1], in the assay with ULK kinase [2] and against ULK1 kinase were over 600 nM, over 600 nM and 25 to 100 nM, respectively. Regarding `CN1CCN(c2ccc(Nc3ncc(C(F)(F)F)c(NCCCN4CCCCCC4=O)n3)c(C3CC3)c2)CC1` [Example 38], the 50% inhibitory concentration (IC50) against ULK1 kinase is 1 to 25 nM. For the compound `CN1CCN(c2ccc(Nc3ncc(Br)c(NCCCN4CCCOC4=O)n3)c(C3CC3)c2)CC1` [Example 40], the half-maximal inhibitory concentration (IC50) in the assay with ULK kinase [1] was 10 to 100 nM; in the assay on ULK kinase [2], 10 to 100 nM; against ULK1 kinase, 1 to 25 nM.

`O=C1OCCCN1CCCNc1nc(Nc2ccc(N3CCN4CCC[C@@H]4C3)cc2C2CC2)ncc1C(F)(F)F` [Example 42]: the figures for the IC50 with ULK kinase [1], with ULK kinase [2] and at ULK1 kinase were 10 to 100 nM, 10 to 100 nM and 1 to 25 nM, respectively. As to `CCc1cc(N2CCN(C)CC2)ccc1Nc1ncc(Cl)c(NCCCN2CCCOC2=O)n1` [Example 43], the IC50 against ULK1 kinase fell in the range of 25 to 100 nM.

In the case of `CCc1cc(N2CCN(C)CC2)ccc1Nc1ncc(Br)c(NCCCN2CCCOC2=O)n1` [Example 44], the IC50 with ULK kinase [1] lay within 10 to 100 nM; in the assay with ULK kinase [2], 10 to 100 nM; against ULK1 kinase, 1 to 25 nM.

On ULK1 kinase, `CCc1cc(N2CCN(C)CC2)ccc1Nc1ncc(C2CC2)c(NCCCN2CCCOC2=O)n1` [Example 45] returned a half-inhibitory concentration (IC50) of 100 to 500 nM. `CCc1cc(N2CCN(C)CC2)ncc1Nc1ncc(C(F)(F)F)c(NCCCN2CCCOCC2=O)n1` [Example 53]: on ULK1 kinase, the 50% inhibitory concentration (IC50) fell in the range of 25 to 100 nM. On the same count and under the same terms, next, `CCc1cc(N2CCCN(C)CC2)ccc1Nc1ncc(C(F)(F)F)c(NCCCN2CCCOCC2=O)n1` [Example 63]: 25 to 100 nM; `CC(C)c1cc(N2CCN(C)CC2)ccc1Nc1ncc(Br)c(NCCCN2CCCOCC2=O)n1` [Example 77]: 25 to 100 nM; `CCc1cc(N2CCN(C)CC2)ccc1Nc1ncc(C2CC2)c(NCCCN2CCOCCC2=O)n1` [Example 83]: over 500 nM.

In turn, `O=C1CCOCCN1CCCNc1nc(Nc2ccc(N3CCNCC3)cc2C2CC2)ncc1Cl` [Example 89] yielded a half-maximal inhibitory concentration (IC50) on ULK1 kinase of 100 to 500 nM. In the case of `CN1CCN(c2ccc(Nc3cc(NCCCN4CCCCC4=O)c(C(F)(F)F)cn3)c(C3CC3)c2)CC1` [Example 94], on ULK1 kinase, the IC50 fell in the range of 25 to 100 nM. On ULK1 kinase, `CN1CCN(c2ccc(Nc3cc(NCCCN4CCCCC4=O)c(C(F)(F)F)cn3)nc2)CC1` [Example 97, 1-(3-((2-((5-(4-methylpiperazin-1-yl)pyridin-2-yl)amino)-5-(trifluoromethyl)pyridin-4-yl)amino)propyl)piperidin-2-one] came in with a 50% inhibitory concentration (IC50) of 100 to 500 nM. As for `CN1CCN(c2ccc(Nc3cc(NCCCN4CCOCCC4=O)c(Cl)cn3)c(C3CC3)c2)CC1` [Example 104], the IC50 at ULK1 kinase was 100 to 500 nM.

Compound `CCc1cc(N2CCN3CCC[C@H]3C2)ccc1Nc1ncc(C(F)(F)F)c(NCCCN2CCCOC2=O)n1` [Example 121] had a half-maximal inhibitory concentration (IC50) against ULK1 kinase of 1 to 25 nM. Compound `CCc1cc(N2CCN(C)CC2)ncc1Nc1ncc(C(F)(F)F)c(NCCCN2CCCOC2=O)n1` [Example 128] showed an IC50 at ULK1 kinase of 1 to 25 nM. Consider `CN1C2CCC1CN(c1ccc(Nc3ncc(C(F)(F)F)c(NCCCN4CCOCCC4=O)n3)c(C3CC3)c1)C2` [Example 133], for which the IC50 against ULK1 kinase lay within 100 to 500 nM. `CN1CCN(c2ccc(Nc3ncc(C(F)(F)F)c(NCCCN4CCOCCC4=O)n3)c(C(C)(C)O)c2)CC1` [Example 134]: at ULK1 kinase, the 50% inhibitory concentration (IC50) was over 500 nM. As to `CN1CCN(c2ccc(Nc3ncc(C(F)(F)F)c(NCCCN4CCCOC4=O)n3)c(C(C)(C)O)c2)CC1` [Example 135], the IC50 against ULK1 kinase lay within 100 to 500 nM. On ULK1 kinase, `CN(C)C1CN(c2ccc(Nc3ncc(C(F)(F)F)c(NCCCN4CCOCCC4=O)n3)c(C3CC3)c2)C1` [Example 136] gave an IC50 of 1 to 25 nM. Consider `CCc1cc(N2CC3CCC(C2)N3C)ccc1Nc1ncc(C(F)(F)F)c(NCCCN2CCCOCC2=O)n1` [Example 138], for which the IC50 against ULK1 kinase was in the range of 100 to 500 nM. Still for that read-out and setting: the figure for `CCc1cc(N2CC3CCC(C2)N3C)ccc1Nc1ncc(C(F)(F)F)c(NCCCN2CC(C)(C)C2=O)n1` [Example 139] is over 500 nM. `CCc1cc(N2CC3CCC(C2)N3C)ccc1Nc1ncc(C(F)(F)F)c(NCCCN2CCC(C)(C)OC2=O)n1` [Example 140]: the half-inhibitory concentration (IC50) at ULK1 kinase lay within 100 to 500 nM.

The compound `CCc1cc(N2CCN(C)CC2)ccc1Nc1ncc(C(F)(F)F)c(NCCCN2CC(C)(C)C2=O)n1` [Example 141] displayed a half-inhibitory concentration (IC50) against ULK1 kinase of 25 to 100 nM. The compound `CCc1cc(N2CCN(C)CC2)ccc1Nc1ncc(C(F)(F)F)c(NCCCN2CCOCC(C)(C)C2=O)n1` [Example 142] returned an IC50 against ULK1 kinase of 1 to 25 nM.

Regarding `CCc1cc(C2CCN(C)C2)ccc1Nc1ncc(C(F)(F)F)c(NCCCN2CCOCCC2=O)n1` (stereo not shown) [Example 143], the IC50 against ULK1 kinase is 1 to 25 nM. As for `CCc1cc(N2CC[C@@H](N(C)C)C2)ccc1Nc1ncc(C(F)(F)F)c(NCCCN2CCOCCC2=O)n1` [Example 144], the half-inhibitory concentration (IC50) at ULK1 kinase lay within 1 to 25 nM. For `CCc1cc(N2CC[C@H](N(C)C)C2)ccc1Nc1ncc(C(F)(F)F)c(NCCCN2CCOCCC2=O)n1` [Example 145], on ULK1 kinase, the concentration for half-maximal inhibition (IC50) is 1 to 25 nM. Compound `CCc1cc(C2CCN(C)CC2)ccc1Nc1ncc(C(F)(F)F)c(NCCCN2CCOCCC2=O)n1` [Example 146] yielded an IC50 at ULK1 kinase of 25 to 100 nM. For the compound `CN(C)CC1CN(c2ccc(Nc3ncc(C(F)(F)F)c(NCCCN4CCCCC4=O)n3)c(C3CC3)c2)C1` [Example 151], the IC50 against ULK1 kinase lay in the range of 1 to 25 nM. `CCc1cc(N2CC(CN(C)C)C2)ccc1Nc1ncc(C(F)(F)F)c(NCCCN2CCOCCC2=O)n1` [Example 152] gave an IC50 against ULK1 kinase of 1 to 25 nM.
